One data set can be described thus: Liquid dish neat product liquid-air partition coefficient. The class given is physicochemical.
Details: not given
On to `CC(=CCC1CC=C(C)C1(C)C)CO` (stereo not drawn) [Material 1025], for which the “Log of liquid dish neat product liquid-air partition coefficient (Comment Code K/L)” value (from here on “Log … (Comment Code K/L)”) is “K (Log of liquid dish neat product liquid-air partition coefficient greater than or equal to −7)”.
For the molecule `CC(C)Cc1ccc(CC(C)C=O)cc1` (stereo not drawn) [Material 1033], the “Log … (Comment Code K/L)” value was “K (Log of liquid dish neat product liquid-air partition coefficient greater than or equal to −7)”.
For the molecule `CC1CC(C)(C)OC(Cc2ccccc2)O1` (stereo not drawn) [Material 1003], the “Log … (Comment Code K/L)” value was “K (Log of liquid dish neat product liquid-air partition coefficient greater than or equal to −7)”.
Still for that read-out and setting: to `CC1=CCCC2(C)CCC(C(C)(C)O)CC12` (stereo not drawn) [Material 775] belongs “K (Log of liquid dish neat product liquid-air partition coefficient greater than or equal to −7)”.
On the same count and under the same terms, to `CCCCOC(=O)C(C)OC(=O)CCC` (stereo not drawn) [Material 595] belongs “K (Log of liquid dish neat product liquid-air partition coefficient greater than or equal to −7)”; to `C=C(C)C1CCC2(C)CCCC(=C)C2C1` (stereo not drawn) [Material 615], “K (Log of liquid dish neat product liquid-air partition coefficient greater than or equal to −7)”; to `CC/C(=C/CC1CC=C(C)C1(C)C)CO` (stereo not drawn) [Material 1024], “K (Log of liquid dish neat product liquid-air partition coefficient greater than or equal to −7)”.
Consider `CC1=CC2C(C(C)C)CCC(C)(O)C2CC1` (stereo not drawn) [Material 716], for which the “Log … (Comment Code K/L)” value is recorded as “K (Log of liquid dish neat product liquid-air partition coefficient greater than or equal to −7)”.
On the same count and under the same terms, for `CC1CCC2C(C2(C)C)C12COC(C)(C)OC2` (stereo not drawn) [Material 1036] the value was “K (Log of liquid dish neat product liquid-air partition coefficient greater than or equal to −7)”.
With `C=C1C2CCC(C2)C1(C)CCC=C(C)CO` (stereo not drawn) [Material 616], the “Log … (Comment Code K/L)” value is on record as “K (Log of liquid dish neat product liquid-air partition coefficient greater than or equal to −7)”.
Still for that read-out and setting: to `C=CC(C)(CCC=C(C)C)OC(C)OCC` (stereo not drawn) [Material 916] belongs “K (Log of liquid dish neat product liquid-air partition coefficient greater than or equal to −7)”.

The data set is the same for the next values; noted with them: class code letter within Comment Code.
On to `CCCCCCCCCCCCCC(=O)OC` [Material 104], for which the “Log … (Comment Code K/L)” value is recorded as “K (Log of liquid dish neat product liquid-air partition coefficient greater than or equal to −7)”.
Still for that read-out and setting: to `C=CCCC(=O)/C=C/C1C(C)=CCCC1(C)C` (stereo not drawn) [Material 559] belongs “K (Log of liquid dish neat product liquid-air partition coefficient greater than or equal to −7)”; to `C=CCCCCCCCCC#N` [Material 352], “K (Log of liquid dish neat product liquid-air partition coefficient greater than or equal to −7)”.
For `CC=CC(=O)C1C(C)C=CCC1(C)C` (stereo not drawn) [Material 466], the “Log … (Comment Code K/L)” value is on record as “K (Log of liquid dish neat product liquid-air partition coefficient greater than or equal to −7)”.
Still for that read-out and setting: for `CC1COCc2cc3c(cc21)C(C)(C)C(C)C3(C)C` (stereo not drawn) [Material 335] the value was “K (Log of liquid dish neat product liquid-air partition coefficient greater than or equal to −7)”; for `CC1(C)CCCC2=C1CC(C=O)CC2` (stereo not drawn) [Material 486], “K (Log of liquid dish neat product liquid-air partition coefficient greater than or equal to −7)”.
Same read-out and setting: for `C=C(C)C1CC=C(C)C(O)C1` (stereo not drawn) [Material 531] the value was “K (Log of liquid dish neat product liquid-air partition coefficient greater than or equal to −7)”; for `COC(=O)C=Cc1ccccc1` [Material 117], “K (Log of liquid dish neat product liquid-air partition coefficient greater than or equal to −7)”.
On the same count and under the same terms, to `CCCCCCCC1CCCC(=O)O1` (stereo not drawn) [Material 463] belongs “K (Log of liquid dish neat product liquid-air partition coefficient greater than or equal to −7)”.
On to `O=C1CCC=CCCCCCCCCCC1` [Material 371], for which the “Log … (Comment Code K/L)” value is recorded as “K (Log of liquid dish neat product liquid-air partition coefficient greater than or equal to −7)”.
The same measure, in the same setting: to `CCCCCCCCCC/C=C\C#N` [Material 11] belongs “K (Log of liquid dish neat product liquid-air partition coefficient greater than or equal to −7)”; to `CC(C)=CCC/C(C)=C\CO` [Material 64], “K (Log of liquid dish neat product liquid-air partition coefficient greater than or equal to −7)”; to `CCCCCC(=O)OCc1ccco1` [Material 338], “K (Log of liquid dish neat product liquid-air partition coefficient greater than or equal to −7)”.
On the same count and under the same terms, for `O=C1CCC=CCCCCCCCCCC1` [Material 372] the value was “K (Log of liquid dish neat product liquid-air partition coefficient greater than or equal to −7)”; for `CC1=CC(C)C2C(CCC(C)(C)C2O)C1` (stereo not drawn) [Material 39], “K (Log of liquid dish neat product liquid-air partition coefficient greater than or equal to −7)”; for `Cc1cccc(CC(C)(C)CO)c1` [Material 140], “K (Log of liquid dish neat product liquid-air partition coefficient greater than or equal to −7)”.
Same read-out and setting: to `CC(C)c1ccc(CO)cc1` [Material 491] belongs “K (Log of liquid dish neat product liquid-air partition coefficient greater than or equal to −7)”; to `O=C1CCCCCCCCCCCCCCCO1` [Material 277], “K (Log of liquid dish neat product liquid-air partition coefficient greater than or equal to −7)”.
In the case of `CC1(CO)CC1CC1CC2CC2(C)C1(C)C` (stereo not drawn) [Material 185], the “Log … (Comment Code K/L)” value is listed as “K (Log of liquid dish neat product liquid-air partition coefficient greater than or equal to −7)”.
The same measure, in the same setting: to `CC(=O)[C@@]1(C)CC2=C(CCCC2(C)C)C[C@@H]1C` [Material 215] belongs “K (Log of liquid dish neat product liquid-air partition coefficient greater than or equal to −7)”.

Still in this data set, the particulars now being: code letters K, L.
In the case of `CCCCCCCC(=O)OCCC(C)C` [Material 237], the “Comment Code: Log of liquid dish neat product liquid-air partition coefficient” value (shortened to “Comment Code: Log”) is on record as “K (Log of liquid dish neat product liquid-air partition coefficient greater than or equal to −7)”.
Same read-out and setting: to `CC1COCc2cc3c(cc21)C(C)(C)C(C)C3(C)C` (stereo not drawn) [Material 335] belongs “K (Log of liquid dish neat product liquid-air partition coefficient greater than or equal to −7)”; to `CC1=CCCC2(C)CCC(C(C)(C)O)CC12` (stereo not drawn) [Material 775], “K (Log of liquid dish neat product liquid-air partition coefficient greater than or equal to −7)”; to `CCC(=O)OC(C)c1ccccc1` (stereo not drawn) [Material 96], “K (Log of liquid dish neat product liquid-air partition coefficient greater than or equal to −7)”.
Turning to `c1ccc(COCc2ccccc2)cc1` [Material 454], the “Comment Code: Log” value is “K (Log of liquid dish neat product liquid-air partition coefficient greater than or equal to −7)”.
As for `C[C@@H]1CC[C@H]2[C@@H]1[C@H]1[C@@H](CC[C@]2(C)O)C1(C)C` [Material 1140], the “Comment Code: Log” value is on record as “K (Log of liquid dish neat product liquid-air partition coefficient greater than or equal to −7)”.
On the same count and under the same terms, for `CCC(C)(O)/C=C/C=C(C)C` (stereo not drawn) [Material 81] the value was “K (Log of liquid dish neat product liquid-air partition coefficient greater than or equal to −7)”; for `CCOCCOCCO` [Material 579], “K (Log of liquid dish neat product liquid-air partition coefficient greater than or equal to −7)”.
On the same count and under the same terms, for `C=C(C)C(=O)OCCc1ccccc1` [Material 971] the value was “K (Log of liquid dish neat product liquid-air partition coefficient greater than or equal to −7)”; for `CC1=CC(C)C2C(CCC(C)(C)C2O)C1` (stereo not drawn) [Material 39], “K (Log of liquid dish neat product liquid-air partition coefficient greater than or equal to −7)”; for `CC(=O)OCCc1ccccc1` [Material 832], “K (Log of liquid dish neat product liquid-air partition coefficient greater than or equal to −7)”.
Still for that read-out and setting: for `CC/C(=C/CC1CC=C(C)C1(C)C)CO` (stereo not drawn) [Material 1024] the value was “K (Log of liquid dish neat product liquid-air partition coefficient greater than or equal to −7)”; for `C=CCOC(=O)COC1CCCCC1` [Material 918], “K (Log of liquid dish neat product liquid-air partition coefficient greater than or equal to −7)”.
With `CCCOC(=O)[C@H](C)OC(C)(C)CC` [Material 1030], the “Comment Code: Log” value is recorded as “K (Log of liquid dish neat product liquid-air partition coefficient greater than or equal to −7)”.
Turning to `CC(C)C(=O)OCc1ccccc1` [Material 647], the “Comment Code: Log” value is “K (Log of liquid dish neat product liquid-air partition coefficient greater than or equal to −7)”.
Still for that read-out and setting: for `C=C1C2CCC(C2)C1(C)CCC=C(C)CO` (stereo not drawn) [Material 616] the value was “K (Log of liquid dish neat product liquid-air partition coefficient greater than or equal to −7)”.
On to `CC1(CO)CC1CC1CC2CC2(C)C1(C)C` (stereo not drawn) [Material 185], for which the “Comment Code: Log” value is recorded as “K (Log of liquid dish neat product liquid-air partition coefficient greater than or equal to −7)”.
On the same count and under the same terms, for `CC(=O)[C@@]1(C)CC2=C(CCCC2(C)C)C[C@@H]1C` [Material 215] the value was “K (Log of liquid dish neat product liquid-air partition coefficient greater than or equal to −7)”.
Regarding `C=CC(C)(CCC=C(C)C)OC=O` (stereo not drawn) [Material 150], the “Comment Code: Log” value was “K (Log of liquid dish neat product liquid-air partition coefficient greater than or equal to −7)”.

The same data set, now with this note: codes K/L of the Comment Code, Table 1.
For the molecule `C[C@@H]1CC[C@H]2[C@@H]1[C@H]1[C@@H](CC[C@]2(C)O)C1(C)C` [Material 1140], the “Comment Code: Log” value is “K (Log of liquid dish neat product liquid-air partition coefficient greater than or equal to −7)”.

Source of the values: patent US20160090556A1, “PRODUCTS COMPRISING MALODOR REDUCTION MATERIALS” (The Procter & Gamble Company, priority 2014, published 2016).
